The source of these data is ChEMBL document CHEMBL5620433, “Design and synthesis of new 1,2,3-triazoles derived from eugenol and analogues with in vitro and in vivo activity against Trypanosoma cruzi” (Eur J Med Chem, 2023).

Data set [1] is described as follows: Selectivity index, ratio of CC50 for cytotoxicity against rat H9c2 cells to IC50 for antitrypanosomal activity against epimastigote form of Trypanosoma cruzi Y. It counts as toxicity, cell-based. As to conditions: read-out: Ratio IC50.
In data set [2] the target is Cruzipain (Trypanosoma cruzi) (UniProt P25779). As to the kind of experiment: Inhibition of recombinant Trypanosoma cruzi Cruzain using Z-FR-AMC as substrate at 100 uM measured for 5 mins by fluorescence based analysis.
The nature of data set [3]: (§1) Cytotoxicity against rat H9c2 cells assessed as reduction in cell viability measured after 72 hrs by resazurin due based analysis. It counts as toxicity. The settings on record: rat, H9c2 cells.
Data set [4] concerns Trypanosoma cruzi. Briefly: Antitrypanosomal activity against epimastigote form of Trypanosoma cruzi Y assessed as inhibition of parasite proliferation incubated for 72 hrs by resazurin dye based analysis. It counts as functional, organism-based.
Data set [5] concerns the target Cruzipain (Trypanosoma cruzi) (UniProt P25779). Briefly: Inhibition of recombinant Trypanosoma cruzi Cruzain using Z-FR-AMC as substrate at 100 uM preincubated with enzyme for 10 mins and measured for 5 mins by fluorescence based analysis. The settings on record: time 15.0 min.
Data set [6] relates to Trypanosoma cruzi. Briefly: Anti-trypanosomal activity against trypomastigote form of Trypanosoma cruzi Y infected in Swiss mouse assessed as reduction in parasitemia at 10 to 100 mg/kg, po administered via gavage for 7 days from day 5 post-infection. The settings on record: dose 10-100 mg/kg, time 7.0 day. The data set is classed as functional, organism-based.
A short description of data set [7]: Toxicity in po dosed Swiss mouse infected with trypomastigote form of Trypanosoma cruzi Y assessed as diarrhea administered via gavage for 7 days from day 5 post-infection and measured on day 13 post-infection. The data set is classed as organism-based. The settings on record: in vivo, 192 h, time 8 day.
Data set [8] is described as follows: Toxicity in po dosed Swiss mouse infected with trypomastigote form of Trypanosoma cruzi Y assessed as mortality administered via gavage for 7 days from day 5 post-infection and measured on day 13 post-infection. The data set is classed as organism-based. As to conditions: in vivo, 192 h, time 8 day.
A short description of data set [9]: Toxicity in po dosed Swiss mouse infected with trypomastigote form of Trypanosoma cruzi Y assessed as apathy administered via gavage for 7 days from day 5 post-infection and measured on day 13 post-infection. The settings on record: in vivo, 192 h, time 8 day. The data set is classed as organism-based.
Data set [10] can be described thus: Hepatotoxicity in Swiss mouse infected with trypomastigote form of Trypanosoma cruzi Y assessed as plasma alanine aminotransferase level at 50 to 100 mg/kg, po administered via gavage for 7 days from day 5 post-infection by spectrophotometry. The data set is classed as toxicity, organism-based. As to conditions: in vivo, 168 h, dose 50-100 mg/kg, time 7 day.
Data set [11] concerns Trypanosoma cruzi. As to the kind of experiment: Antitrypanosomal activity against trypomastigote form of Trypanosoma cruzi Y assessed as inhibition of parasite viability incubated for 24 hrs by light microscopy. It counts as functional, organism-based.
The nature of data set [12]: Toxicity in Swiss mouse infected with trypomastigote form of Trypanosoma cruzi Y assessed as increase in weight gain at 10 to 100 mg/kg, po administered via gavage for 7 days from day 5 post-infection. The data set is classed as organism-based. As to conditions: in vivo, 168 h, dose 10-100 mg/kg, time 7 day.
The nature of data set [13]: Toxicity in po dosed Swiss mouse infected with trypomastigote form of Trypanosoma cruzi Y assessed as bristly fur administered via gavage for 7 days from day 5 post-infection and measured on day 13 post-infection. The data set is classed as organism-based. The settings on record: in vivo, 192 h, time 8 day.
Data set [14] in a line: Hepatotoxicity in Swiss mouse infected with trypomastigote form of Trypanosoma cruzi Y assessed as plasma aspartate aminotransferase level at 50 to 100 mg/kg, po administered via gavage for 7 days from day 5 post-infection by spectrophotometry. It counts as toxicity, organism-based. The settings on record: in vivo, 168 h, dose 50-100 mg/kg, time 7 day.
A further data set has as its system H9c2. Described as §1. It counts as toxicity. The settings on record: h9c2.
In data set [15] the test system is Mus musculus. Briefly: Reduction in plasma IgG1 level in Swiss mouse infected with trypomastigote form of Trypanosoma cruzi Y at 100 mg/kg, po administered via gavage for 7 days from day 5 post-infection by ELISA. The data set is classed as functional, organism-based. As to conditions: time 7.0 day. For orientation: ELISA stands for enzyme-linked immunosorbent assay.

Data set [16] concerns Mus musculus. Briefly: Reduction in plasma IgG2 level in Swiss mouse infected with trypomastigote form of Trypanosoma cruzi Y at 100 mg/kg, po administered via gavage for 7 days from day 5 post-infection by ELISA. The data set is classed as functional, organism-based. As to conditions: time 7.0 day.
Data set [17] deals with Mus musculus. As to the kind of experiment: Reduction in plasma total IgG level in Swiss mouse infected with trypomastigote form of Trypanosoma cruzi Y at 100 mg/kg, po administered via gavage for 7 days from day 5 post-infection by ELISA. It counts as functional, organism-based. The settings on record: time 7.0 day.
Data set [18] relates to Trypanosoma cruzi. As to the kind of experiment: Anti-trypanosomal activity against trypomastigote form of Trypanosoma cruzi Y infected in Swiss mouse assessed as reduction in parasitemia at 100 mg/kg, po administered via gavage for 2 days from day 5 post-infection. It counts as functional. As to conditions: 48 h, time 2 day.
The test system of data set [19] is Trypanosoma cruzi. Briefly: Anti-trypanosomal activity against trypomastigote form of Trypanosoma cruzi Y infected in mouse assessed as reduction in parasitemia at 100 mg/kg, po for 7 days. It counts as functional. As to conditions: 168 h, time 7 day.
Data set [20] concerns Trypanosoma cruzi. Briefly: Anti-trypanosomal activity against epimastigote form of Trypanosoma cruzi by resazurin microtiter assay. The data set is classed as functional, organism-based.

pIC50: −log10 of the molar value. The source made the active and inactive calls. The calls are words filed in the database; no cut-off is given here.

Cruzipain (Trypanosoma cruzi), sequence (P25779 123-467 limits assumed): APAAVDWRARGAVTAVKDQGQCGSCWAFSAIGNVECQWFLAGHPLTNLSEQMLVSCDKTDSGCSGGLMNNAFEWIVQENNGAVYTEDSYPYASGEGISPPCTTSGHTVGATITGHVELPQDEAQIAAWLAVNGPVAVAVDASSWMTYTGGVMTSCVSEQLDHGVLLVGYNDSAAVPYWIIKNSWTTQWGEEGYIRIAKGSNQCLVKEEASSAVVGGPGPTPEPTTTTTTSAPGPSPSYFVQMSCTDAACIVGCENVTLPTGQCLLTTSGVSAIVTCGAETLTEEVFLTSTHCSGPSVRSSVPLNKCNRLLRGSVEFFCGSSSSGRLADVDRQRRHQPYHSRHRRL

Turning to `COc1ccccc1OCC(O)Cn1cc(COc2ccc([N+](=O)[O-])cc2)nn1` (racemic), the selectivity ratio in [1] turned out to be 2.1. Moreover, the inhibition in data set [2] and in [5] was 7.2% in each case. The IC50 (usually the concentration needed to halve the response being measured) at 72 h in data set [3] stood at 134 µM. For the same compound, in the data set on Trypanosoma cruzi [4], the pIC50 (in general, the IC50 on a negative log10 scale, so that one unit is a factor of ten) was 4.22.

As for `COc1ccccc1OCC(O)Cn1cc(COc2ccc(Cl)cc2)nn1` (racemic), the selectivity ratio in data set [1] amounted to 3.1. For the same compound, the inhibition in data set [2] and in [5] was 7.2% throughout. Also, the IC50 at 72 h in data set [3] was found to be 380 µM. Also, in the data set with Trypanosoma cruzi [4], the pIC50 was 3.92.

With `CCCc1ccc(OCC(O)Cn2cc(COc3ccc(Cl)cc3)nn2)c(OC)c1` (racemic), the outcome in the data set on Trypanosoma cruzi [6] was inactive. The selectivity ratio in [1] was 6.6. In addition, the Activity result is on record as “Non-Toxic” in [7]; “Non-Toxic” in [8]; “Non-Toxic” in data set [9]; “Non-Toxic” in [10]; “Non-Toxic” in data set [12]; “Toxic” in data set [13]. Also, the Activity result in [14] is on record as “Non-Toxic”. Moreover, the inhibition in data set [2] and in data set [5] was 29.3% in each case. For the same compound, in data set [3], the IC50 at 72 h came to 132 µM. The pIC50 in the data set on Trypanosoma cruzi [11] is 4.68; in the data set with Trypanosoma cruzi [4], 4.71.

As to `CCCc1ccc(OCC(O)Cn2ccnn2)c(OC)c1` (racemic), the selectivity ratio in data set [1] is 3.5. Further, the inhibition in data set [2] and in [5] was 7.2% throughout. Moreover, in data set [3], the IC50 at 72 h is 743 µM. Besides, in the data set with Trypanosoma cruzi [4], the pIC50 was 3.67.

In the case of `C=CCc1ccc(OCC(O)Cn2cc(COc3ccc(OC)cc3)nn2)c(OC)c1` (racemic), the selectivity ratio in data set [1] came out at 8.9. The inhibition in data set [2] and in data set [5] was 7.2% in each case. Further, the pIC50 was 2.77 in the data set on H9c2 and 3.72 in the data set on Trypanosoma cruzi [4].

Consider `COc1ccccc1OCC(O)Cn1cc(-c2ccccc2)nn1` (racemic), for which, in [1], the selectivity ratio was 3.3. Besides, the inhibition in data set [2] and in data set [5] was 7.2% each time. Moreover, the concentration for half-maximal inhibition (IC50) at 72 h in data set [3] was 422 µM. Also, the pIC50 with Trypanosoma cruzi [4] is 3.90.

In the case of `CCCc1ccc(OCC(Cn2cc(-c3ccccc3)nn2)OC)c(OC)c1` (racemic), in data set [1], the selectivity ratio worked out at 2.8. The inhibition in data set [2] and in data set [5] was 7.2% in each case. Also, the IC50 at 72 h in data set [3] is 555 µM. In addition, the pIC50 in the data set on Trypanosoma cruzi [4] is 3.70.

As to `COc1ccc(OCc2cn(CC(O)COc3ccccc3OC)nn2)cc1` (racemic), in [1], the selectivity ratio came out at 4.1. Further, the inhibition in data set [2] and in data set [5] was 7.2% throughout. In data set [3], the IC50 at 72 h is 469 µM. Moreover, the pIC50 in the data set on Trypanosoma cruzi [4] was 3.95.

`CCCc1ccc(OCC(O)Cn2cc(COc3ccccc3)nn2)c(OC)c1` (racemic): in data set [1], the selectivity ratio came to 2.7. Moreover, the inhibition in [2] and in data set [5] was 7.2% throughout. Further, the IC50 at 72 h in [3] came to 211 µM. Besides, the pIC50 with Trypanosoma cruzi [4] is 4.12.

As for `CCCc1ccc(OCC(Cn2cc(-c3ccccc3)nn2)OCc2ccccc2)c(OC)c1` (racemic), the selectivity ratio in data set [1] was over 1.1. Also, the inhibition in [2] and in [5] was 7.2% in each case. The IC50 at 72 h in data set [3] was over 400 µM. Also, the pIC50 in the data set on Trypanosoma cruzi [4] is 3.47.

For the compound `COc1ccccc1OCC(O)Cn1cc(COc2ccccc2)nn1` (racemic), the selectivity ratio in data set [1] is 3.8. Also, the inhibition in [2] and in data set [5] was 7.2% throughout. The IC50 at 72 h in data set [3] stood at 437 µM. In the data set on Trypanosoma cruzi [4], the pIC50 is 3.95.

On to `CCCc1ccc(OCC(O)Cn2cc(COc3ccc(C(C)C)cc3)nn2)c(OC)c1` (racemic), for which the selectivity ratio in data set [1] was found to be 7.3. The inhibition in [2] and in data set [5] was 7.2% throughout. Also, the IC50 at 72 h in [3] is 302 µM. Moreover, in the data set on Trypanosoma cruzi [4], the pIC50 is 4.39.

Consider `C=CCc1ccc(OCC(O)Cn2cc(COc3ccccc3)nn2)c(OC)c1` (racemic), for which the selectivity ratio in [1] is 1.6. The inhibition in data set [2] and in data set [5] was 7.2% throughout. Moreover, in data set [3], the IC50 at 72 h was 410 µM. Further, the pIC50 in the data set with Trypanosoma cruzi [4] is 3.59.

As to `C=CCc1ccc(OCC(O)Cn2cc(COc3ccc(Cl)cc3)nn2)c(OC)c1` (racemic), the selectivity ratio in data set [1] is 1.5. For the same compound, the inhibition in data set [2] and in [5] was 7.2% throughout. Besides, the IC50 at 72 h in [3] is 58.1 µM. The pIC50 in the data set with Trypanosoma cruzi [4] was 4.43.

In the case of `CCCc1ccc(OCC(O)Cn2cc(COc3ccc(OC)cc3)nn2)c(OC)c1` (racemic), in data set [1], the selectivity ratio turned out to be 9.1. The inhibition in data set [2] and in [5] was 7.2% throughout. Further, the IC50 at 72 h in data set [3] is 315 µM. In addition, the pIC50 with Trypanosoma cruzi [4] was 4.46.

For `COc1ccccc1OCC(O)Cn1cc(COc2ccc(C(C)C)cc2)nn1` (racemic), the inhibition in data set [2] and in [5] was 7.2% each time. Also, in the data set with Trypanosoma cruzi [4], the pIC50 is 4.19.

`C=CCc1ccc(OCC(O)Cn2cc(COc3ccc([N+](=O)[O-])cc3)nn2)c(OC)c1` (racemic): in [1], the selectivity ratio worked out at 2.1. The inhibition in data set [2] and in data set [5] was 7.2% in each case. The IC50 at 72 h in data set [3] worked out at 323 µM. The pIC50 in the data set with Trypanosoma cruzi [4] is 3.83.

For `O=C(Cn1ccnc1[N+](=O)[O-])NCc1ccccc1` [BENZNIDAZOLE], the selectivity ratio in [1] stood at 78.4. Further, the inhibition result with Mus musculus [15], in the data set with Mus musculus [16] and with Mus musculus [17] was “Active” throughout. Besides, the pIC50 in the data set on H9c2 was 2.77; with Trypanosoma cruzi [11] it was 4.90; in the data set on Trypanosoma cruzi [4], 4.67. Further, the inhibition in vivo (in general, the drop in the measured response relative to a control, in per cent) at 100 mg/kg with Trypanosoma cruzi [18] worked out at 100%.

Turning to `C=CCc1ccc(OCC(O)Cn2cc(COc3ccc(C(C)C)cc3)nn2)c(OC)c1` (racemic), the selectivity ratio in data set [1] is 0.5. The inhibition in data set [2] and in data set [5] was 7.2% each time. Further, the IC50 at 72 h in data set [3] worked out at 480 µM. The negative logarithm of the IC50 (pIC50) with Trypanosoma cruzi [4] is 3.08.

Turning to `CCCc1ccc(OCC(O)Cn2cc(-c3ccccc3)nn2)c(OC)c1` (racemic), the selectivity ratio in data set [1] was 0.3. For the same compound, the inhibition in data set [2] and in [5] was 17% throughout. Moreover, the inhibition in vivo at 100 mg/kg in the data set with Trypanosoma cruzi [19] amounted to 50%. In data set [3], the IC50 at 72 h was 16.8 µM. For the same compound, the pIC50 was 4.37 in the data set on Trypanosoma cruzi [20] and 4.27 with Trypanosoma cruzi [4].

Regarding `CCCc1ccc(OCC(=O)Cn2cc(-c3ccccc3)nn2)c(OC)c1`, the selectivity ratio in data set [1] was determined as 1.9. Further, the inhibition in data set [2] and in data set [5] was 7.2% in each case. In addition, the pIC50 in the data set on H9c2 is 2.97; in the data set with Trypanosoma cruzi [4], 3.25.
